According to US12527776B2, “Treatment of ciliopathies using inhibitors of glucosylceramide synthase (GCS)” (GENZYME CORPORATION, priority 2019, dated 2026):

Tests used:
Type in all cases: in vivo, human
[1] = Phase 1 Study 1 Part 2: PK with and without a high-fat meal; settings: 5 mg single oral dose
Text: (§1) Study 1 was a 2-part single-center trial in healthy adult male volunteers.
Part 1 of the study enrolled and randomized 55 healthy men (placebo, n=14; 2-, 5-, 15, 25-, 50, and 100-mg doses, n=6 each; 150-mg dose, n=5). Eight healthy men participated in Part 2.
After a 7-day washout period, participants were crossed over to the other condition.

[2] = Phase 1 Study 1 Part 1: ascending single-dose pharmacokinetics in healthy volunteers
Text: Compound 2 is also known as venglustat.
as §1
Part 1 of the study enrolled and randomized 55 healthy men (placebo, n=14; 2-, 5-, 15, 25-, 50, and 100-mg doses, n=6 each; 150-mg dose, n=5). Eight healthy men participated in Part 2. […]

[3] = Phase 1 studies: safety and tolerability; settings: multiple ascending dose study, vs placebo, any dose
Description: In all studies, safety profile was assessed by monitoring treatment-emergent adverse events (TEAEs) through 10 days after last dose of study medication, including serious adverse events [SAEs]), ECG monitoring, laboratory values, and physical examinations.

[4] = system: plasma GL-1, GL-3, and GM3 concentrations; experiment: Phase 1 Study 2: pharmacodynamic endpoints (plasma GL-1, GL-3, GM3)
Description: The study enrolled and randomized 36 healthy adults (19 men and 17 women) (n=9 each to group).
Pharmacodynamic endpoints (plasma GL-1, GL-3, and GM3 concentrations) were assessed on Days 1-5, 8, 11, 13, and 14, at 0 hours […]; and on Day 15, at 24 hours after the Day 14 dose.

[5] = across the 3 dose groups (5, 10, 20 mg once daily)

With `CC(C)(NC(=O)O[C@@H]1CN2CCC1CC2)c1csc(-c2ccc(F)cc2)n1` [Compound 2, (S)-quinuclidin-3-yl 2-(2-(4-fluorophenyl)thiazol-4-yl)propan-2-ylcarbamate] the “effect of high-fat meal on exposure compared with fasting” value [1] was “no effect”, the “CL/F, Geometric mean” value ([2]; single oral dose 2 mg) was 6.3 L/h and the “CL/F, Mean” value ([2]; single oral dose 2 mg) was 6.43 L/h. For the same compound, the “CL/F, Geometric mean” value ([2]; single oral dose 5 mg) was 5.8 L/h, the “CL/F, Mean” value ([2]; single oral dose 5 mg) was 5.86 L/h and the “CL/F, Geometric mean” value ([2]; single oral dose 15 mg) was 5.6 L/h. The “CL/F, Mean” value ([2]; single oral dose 15 mg) was 5.85 L/h, the “CL/F, Geometric mean” value ([2]; single oral dose 25 mg) was 5.0 L/h and the “CL/F, Mean” value ([2]; single oral dose 25 mg) was 5.18 L/h. For the same compound, the “CL/F, Geometric mean” value ([2]; single oral dose 50 mg) was 5.5 L/h, the “CL/F, Mean” value ([2]; single oral dose 50 mg) was 5.75 L/h and the “CL/F, Geometric mean” value ([2]; single oral dose 100 mg) was 5.3 L/h. For the same compound, the “CL/F, Mean” value ([2]; single oral dose 100 mg) was 5.38 L/h, the “CL/F, Geometric mean” value ([2]; single oral dose 150 mg) was 5.6 L/h and the “CL/F, Mean” value ([2]; single oral dose 150 mg) was 5.80 L/h. For the same compound, the “median time of maximal plasma concentration (Cmax)” value ([2]; single oral doses of 2 to 150 mg) was 3 to 5.5 h, the ECG parameters [3] was “no ECG parameters changed statistically significantly” and the “Mean estimated plasma GL-1 reductions from baseline attributable to Ctrough” value (from here on “Mean estimated plasma GL-1 reductions”) ([4]; 5 mg group, Ctrough 19.0 ng/mL) was 67.0%. The “Mean estimated plasma GL-1 reductions” value ([4]; 10 mg group, Ctrough 47.5 ng/mL) was 74.4%, the “Mean estimated plasma GL-1 reductions” value ([4]; 20 mg group, Ctrough 69.9 ng/mL) was 76.3% and the “subjects with GL-1 below LLOQ” value ([4]; Day 15, 5 mg group (n=9)) was 3 subjects. The “subjects with GL-3 below LLOQ” value ([4]; Day 15, 5 mg group (n=9)) was 9 subjects, the “Mean calculated GL-1 reductions from baseline” value (from here on “Mean calculated GL-1 reductions”) ([4]; Day 15, 5 mg once daily) was 41.9% and the “subjects with GL-1 below LLOQ” value ([4]; Day 15, 10 mg group (n=9)) was 5 subjects. The “subjects with GL-3 below LLOQ” value ([4]; Day 15, 10 mg group (n=9)) was 7 subjects, the “subjects with GM3 below LLOQ” value ([4]; Day 15, 10 mg group (n=9)) was 1 subjects and the “Mean calculated GL-1 reductions” value ([4]; Day 15, 10 mg once daily) was 69.6%. For the same compound, the “subjects with GL-1 below LLOQ” value ([4]; Day 15, 20 mg group (n=9)) was 9 subjects, the “subjects with GL-3 below LLOQ” value ([4]; Day 15, 20 mg group (n=9)) was 9 subjects and the “subjects with GM3 below LLOQ” value ([4]; Day 15, 20 mg group (n=9)) was 2 subjects. For the same compound, the “Mean calculated GL-1 reductions” value ([4]; Day 15, 20 mg once daily) was 74.6%, the “plasma GL-1 levels vs baseline” value [4, 5] was “decreased from baseline time- and dose-dependently” and the “plasma GM3 levels vs baseline” value [4, 5] was “decreased from baseline time- and dose-dependently”. The “Day on which maximal sustained GM3 decreases started” value ([4]; all dose groups) was 13 days.
